Data published in paper PMC8765781, “A platform of assays for the discovery of anti-Zika small-molecules with activity in a 3D-bioprinted outer-blood-retina model” (PLoS ONE, 2022).
Like-named read-outs stand apart in the source and are kept apart here.

What was measured:
[1] = system: wild-type ZIKV (Ugandan MR766 strain) in Vero cells; experiment: ZIKV cytopathic effect (CPE) inhibition qHTS assay, CellTiter-Glo readout; type: cell-based, Zika virus; details: for IC50: read-out: ZIKV-infection (CPE, ZIKV Antiviral Assays), IC50
[2] = system: ZIKV-RLuc (Cambodian strain FSS13025); experiment: microbe, parasite or virus in culture; type: cell-based, Zika virus; details: for IC50: read-out: Rluc-ZIKV (ZIKV Antiviral Assays), IC50
[3] = system: caspase-3 activity induced by ZIKV in Vero cells; experiment: cells; type: cell-based; details: read-out: Caspase 3 (ZIKV Antiviral Assays), IC50
[4] = system: ZIKV-mCherry (Cambodian strain FSS13025); experiment: microbe, parasite or virus in culture; type: cell-based, Zika virus
in vitro = details: African green monkey
[5] = Zika virus, Vero, read-out: Log AC50 (M) (converted)
[6] = Zika virus, Vero, from Hill fit of the response curve, 50% of maximum activity response, 194 cherry-picked compounds, protocol name not given, read-out: AC50
[7] = Zika virus, Vero, potency in log units (Molar) from Hill fit of the response curve, 194 cherry-picked compounds, protocol name not given, read-out: Log AC50 (converted)
[8] = curve class v2 (Inglese et al. 2006)
[9] = difference between neutral response and maximum compound response
[10] = Zika virus, Vero cells, wild-type ZIKV MOI 1, 48 hr, unit inferred
[11] = Zika virus, ZIKV-infected Vero cells, 48 hr, unit inferred

SMILES	Efficacy [1]	AC50 ([1]; Zika virus, Vero) [M]	AC50 [1, 6] [M]	AC50 [1, 7] [M]	CC-v2 (curve class classification of the dose response curve) [1, 8]	Efficacy [1, 9]	IC50 ([2]; Zika virus, Vero, 48 h) [µM]	CC-v2 (curve class of the dose response curve) [4]	Efficacy (difference between neutral response and maximum compound response) [4]	Max Resp (difference between neutral response and response at highest compound concentration) [4]	AC50 ([4]; Zika virus, Vero) [M]	AC50 [4, 5] [M]	IC50 ([1]; Zika virus, Vero, 48 h) [µM]	AC50 [1, 5] [M]	IC50 ([3]; Zika virus, Vero, 48 h) [µM]	further results
CC1=C(CO)C(=O)O[C@@H]([C@@H](C)[C@H]2CC[C@H]3[C@@H]4C[C@H]5O[C@]56[C@@H](O)C=CC(=O)[C@]6(C)[C@H]4CC[C@]23C)C1 [NCGC00180796-02]	-63.347	3.55e-05														Curve class [1]: -3; AC50 ([1]; Zika virus, Vero, read-out: Log AC50 (converted)): 3.55e-05 M; Emax ([1]; Zika virus, Vero, read-out: Max response): -65.4%; CC-v2 (curve class classification v2 of the dose response curve) [2]: -2.1; Efficacy (difference between neutral response and maximum compound response) [2]: -108.248; Max Resp (difference between neutral response and compound response for highest compound concentration) [2]: -100.116; AC50 ([2]; Zika virus, Vero): 1.02e-05 M; AC50 [2, 5]: 1.02e-05 M; AC50 (Vero cells): 10.2 µM; Log AC50 (M) (Vero cells): -4.9908 M
O=C1NC2CCCCN2C12CCN(CCCN1c3ccccc3CCc3ccc(Cl)cc31)CC2 (centres unmarked) [NCGC00183853-01]			6.51e-05	6.51e-05	-3	-47.567										CC-v2 (curve class classification v2 of the dose response curve) [2]: -2.1; Efficacy (difference between neutral response and maximum compound response) [2]: -99.983; Max Resp (difference between neutral response and compound response for highest compound concentration) [2]: -99.289; AC50 ([2]; Zika virus, Vero): 2.61e-05 M; AC50 [2, 5]: 2.61e-05 M; AC50 (Vero cells): 26.1 µM; Log AC50 (M) (Vero cells): -4.5827 M
C[C@H]1CC[C@@]2(OC1)O[C@H]1CC3[C@@H]4CC[C@@H]5C[C@@H](O[C@@H]6O[C@H](CO)[C@@H](O[C@@H]7O[C@@H](C)[C@H](O)[C@@H](O)[C@H]7O)[C@H](O)[C@H]6O[C@@H]6O[C@H](CO)[C@@H](O)[C@H](O)[C@H]6O)CC[C@]5(C)C4CC[C@]3(C)[C@H]1[C@@H]2C (some centres unmarked) [NCGC00347372-02, Asparanin B]			1.1e-05	1.1e-05	-2.2	-63.699	6.19	-1.2	-51.182	-100.305	1.27e-06	1.27e-06				IC50 [1, 10]: 11 µM; IC50 [3, 11]: 6.98 µM; CC50 at 48 h (in vitro): > 50 µM
CC1(C)CC2C3=CCC4[C@@]5(C)CC[C@H](OC6OCC(O)C(OC7OC(CO)C(O)C(O)C7O)C6O)C(C)(C)C5CC[C@@]4(C)[C@]3(C)C[C@H](O)[C@@]2(CO)[C@H](OC(=O)c2ccccc2)C1 (some centres unmarked) [NCGC00347604-02]			7.78e-06	7.78e-06	-3	-34.889	5.52	-1.4	-68.489	-100.29						IC50 [1, 10]: 7.78 µM; IC50 [3, 11]: > 48 µM; CC50 (in vitro): > 50 µM
CC1(C)CC[C@]2(C(=O)O)CC[C@]3(C)C(=CCC4[C@@]5(C)CCC(O[C@@H]6OC[C@H](O)[C@H](O)[C@H]6O[C@@H]6O[C@H](CO)[C@@H](O)[C@H](O)[C@H]6O)[C@@](C)(CO)C5CC[C@]43C)[C@@H]2C1 (some centres unmarked) [NCGC00347737-02]	-61.863	2.43e-07					12.3						0.24	2.43e-07	0.02	CC50 at 48 h (in vitro; Vero cells): > 50 µM
CC(=O)O[C@@H]1[C@@H](O)[C@H]2O[C@@H]3C=C(C)[C@@H](O)C[C@]3(CO)[C@]1(C)[C@]21CO1 [NCGC00380400-01, NT-2 toxin]	-41.676							-1.2	-59.911	-100.305						CC-v2 (curve class classification of the dose response curve) [1]: -1.2; Log AC50 (M) [1]: -5.594 M; Max Resp [1]: 6.747; AC50 ([1]; read-out: AC50): 2.55e-06 M; IC50 [1]: 2.55 µM; IC50 [3]: 2.29 µM; IC50 [2]: 0.64 µM; Log AC50 (M) [4]: -7.0328 M; AC50 ([4]; read-out: AC50): 9.27e-08 M
C/C=C(\C)C(=O)O[C@H]1[C@H](OC(C)=O)[C@]2(CO)[C@H](O)[C@H](O)[C@]3(C)C(=CCC4[C@@]5(C)CC[C@H](O[C@@H]6O[C@H](C(=O)O)[C@@H](O)[C@H](O[C@@H]7OC[C@H](O)[C@H](O[C@@H]8OC[C@H](O)[C@H](O)[C@H]8O)[C@H]7O)[C@H]6O[C@@H]6O[C@H](CO)[C@@H](O)[C@H](O)[C@H]6O)C(C)(C)C5CC[C@]43C)[C@@H]2CC1(C)C (some centres unmarked) [NCGC00381072-01]	-30.676	8.71e-06					4.45	-2.2	-56.385	-100.02	5.66e-06	5.66e-06	8.71	8.71e-06	2.52	CC50 (in vitro): > 50 µM
CC1=CC[C@]2(C(=O)O[C@@H]3O[C@H](CO[C@@H]4O[C@H](CO)[C@@H](O[C@@H]5O[C@@H](C)[C@H](O)[C@@H](O)[C@H]5O)[C@H](O)[C@H]4O)[C@@H](O)[C@H](O)[C@H]3O)CC[C@]3(C)C(CCC4[C@@]5(C)C[C@@H](O)[C@H](O)[C@@](C)(CO)C5CC[C@]43C)C2C1C (some centres unmarked) [NCGC00381125-01]	-73.731	6.18e-06					0.003	-1.4	-51.276	-44.108			6.18	6.18e-06	0.01	CC-v2 (curve class classification of the dose response curve) [1]: -3; CC50 at 48 h (in vitro): > 50 µM
CC(=O)OCC1OC(OC2COC(OC3COC(OC4C(OC5C(CO)OC(OC6CCC7(C)C(CCC8(C)C7CC=C7C9CC(C)(C)CCC9(C(=O)OC9OC(CO)C(O)C(O)C9OC9OCC(OC%10OCC(O)(CO)C%10O)C(O)C9O)C(O)CC78C)C6(C)C)C(O)C5O)OCC(O)C4O)C(O)C3O)C(O)C2O)C(OC(=O)/C=C/c2ccccc2)C(O)C1OC(C)=O (centres unmarked) [NCGC00381294-01]			5.62e-06	5.62e-06	-2.2	-55.683	1.6	-1.3	-53.243	-100.305	1.16e-06	1.16e-06				IC50 [1, 10]: 5.62 µM; IC50 [3, 11]: 0.2 µM; CC50 (in vitro): > 50 µM
CC(=O)O[C@@H]1C[C@]2(C)[C@@]3(CCC4[C@@]5(C)CC[C@H](O[C@@H]6O[C@H](C(=O)O)[C@@H](O)[C@H](OC7OC(CO)C(O)C(O)[C@H]7O[C@@H]7O[C@@H](C)[C@H](O)[C@@H](O)[C@H]7O[C@@H]7OC[C@](O)(CO)[C@H]7O)[C@H]6OC6OC(CO)C(O)C(O)C6O)C(C)(C)C5CC[C@]42C)OC[C@@]12CCC(C)(C)CC23 (some centres unmarked) [NCGC00381303-01]	-19.952	2.75e-06					1.77	-1.2	-57.722	-99.519	3.18e-06	3.18e-06	2.75	2.75e-06	4.48	CC50 at 48 h (in vitro; Vero cells): > 50 µM
C/C=C(/C)C(=O)O[C@H]1[C@@H]2[C@H](C)C(=O)O[C@@H]2C[C@@H](C)[C@@H]2C=CC(=O)[C@]21C [NCGC00385048-01]	-20.801						18.1								0.65	CC50 at 48 h (in vitro): > 50 µM
